Patent US20230414567A1, “METHODS OF TREATING CONDITIONS RELATED TO THE S1P1 RECEPTOR” (Arena Pharmaceuticals, Inc., priority 2020, published 2023)

What was measured:
[1] = system: patients with moderate to severe atopic dermatitis; experiment: Phase 2 randomized, double-blind, placebo-controlled study: efficacy (EASI, vIGA, pruritus NRS, patient-reported outcomes); type: in vivo, human; conditions: for reduction in EASI from baseline to week 12: 12 weeks (n=47); for delta versus placebo in vIGA 0 or 1 response at week 12: p<0.05
Procedure: A Phase 2, multicenter, randomized, double-blind, placebo-controlled study was conducted to assess the safety and efficacy of etrasimod in patients with moderate to severe atopic dermatitis. The primary endpoint measured was percent change in Eczema Area and Severity Index (EAST) from baseline to week 12, followed by a 4-week follow-up observation period. Secondary endpoints include the proportion of participants achieving EASI-75, proportion of participants with a validated Investigator Global Assessment (vIGA) 0 to 1, and percent change in peak pruritis. The trial enrolled approximately 140 patients and was conducted in study sites across the United States, Canada and Australia. An open-label extension of the trial is ongoing. The study included multiple periods: (i) up to a 4-week screening period (to determine subject eligibility); (ii) a 12-week double-blind treatment period with a 4-week safety follow-up period; and (iii) a 52-week open-label extension period followed by a 4-week safety follow-up period. Subjects with chronic AD for at least one year (as defined by Hanifin and Rajka criteria (Hanifin 1980)) despite optimized skin care (e.g., use of emollients, avoidance of irritants) whose disease is not adequately controlled with topical therapies, or for whom those therapies are not advisable, were equally randomized (1:1:1 ratio) to receive etrasimod (1 or 2 mg) or placebo. Etrasimod 1 or 2 mg tablets or matching placebo tablets were taken orally once daily during the double-blind treatment period. Etrasimod 2 mg tablets are taken orally once daily during the open-label extension period. There is no reference therapy (no placebo) during the open-label extension period. Inclusion Criteria: Subjects must meet ALL of the following inclusion criteria to be eligible for enrollment into the study. • 1. Men or women between ≥18 and ≤70 years of age at the time of informed consent. • 2. Chronic AD, defined by Hanifin and Rajka criteria (Hanifin 1980), that has been present for at least one year prior to the screening visit. • 3. Eczema Area and Severity Index (EAST)≥12 at the screening visit and ≥16 at the baseline visit. • 4. vIGA score≥3 (on the 0 to 4 vIGA scale, in which 3=moderate and 4=severe) involvement at the screening and baseline visits. • 5. Body surface area (BSA)≥10% of AD involvement at the screening and baseline visits. • 6. Recent history (within 6 months prior to the screening visit) of inadequate response to treatment with topical medications, or when topical treatments are otherwise medically inadvisable (e.g., because of important side effects or safety risks), which can be documented by medical records or by the history provided to the investigator by the subject despite optimized skin care (.e., avoidance of irritants, use of emollients). • 7. Willing to apply a dose of topical emollient/moisturizer at least once daily for ≥1 week prior to the baseline visit and willing to continue daily application over the course of the study without change (i.e., type, frequency, application). • 8. Willing and able to comply with all clinic visits and study-related procedures and understand and complete study-related questionnaires. • 9. Provide signed informed consent prior to conducting any procedures. Efficacy was assessed by changes in AD severity using EASI, vIGA, SCORing Atopic Dermatitis (SCORAD), and BSA. Symptoms of itch were assessed using the pruritus numeric rating scale (NRS). Patient-reported outcomes will also be assessed using the Dermatology Life Quality Index (DLQI), Patient Oriented Eczema Measure (POEM), and Patient Global Assessment (PGA).

[2] = system: patients with moderate to severe atopic dermatitis; experiment: Phase 2 atopic dermatitis study: adverse events and tolerability; type: in vivo, human
heart rate = experiment: Phase 2 atopic dermatitis study: heart rate effects after first dose; type: in vivo, human; conditions: for placebo corrected maximal mean heart rate decrease from baseline: 2 hours after first dose
Excerpt: (§1) The study included multiple periods: (i) up to a 4-week screening period (to determine subject eligibility); (ii) a 12-week double-blind treatment period with a 4-week safety follow-up period; and (iii) a 52-week open-label extension period followed by a 4-week safety follow-up period. Subjects with chronic AD for at least one year (as defined by Hanifin and Rajka criteria (Hanifin 1980)) despite optimized skin care (e.g., use of emollients, avoidance of irritants) whose disease is not adequately controlled with topical therapies, or for whom those therapies are not advisable, were equally randomized (1:1:1 ratio) to receive etrasimod (1 or 2 mg) or placebo. Etrasimod 1 or 2 mg tablets or matching placebo tablets were taken orally once daily during the double-blind treatment period. Etrasimod 2 mg tablets are taken orally once daily during the open-label extension period. There is no reference therapy (no placebo) during the open-label extension period.
There was a decrease of 1.5 bpm in the 1 mg group and a decrease of 6.7 bpm in the 2 mg group. […] After the first dose, the heart rate differences across the 3 groups came together by week 1 and were similar from weeks 2-12. One participant in the 2 mg etrasimod group had transient 2nd degree AVB Type 1 which was self-limited, and asymptomatic. The participant went on to further dosing without any cardiac changes or symptoms.

lymphocyte count = experiment: Phase 2 atopic dermatitis study: absolute/peripheral lymphocyte count; type: in vivo, human
Excerpt: as §1
During the double-blind treatment period, etrasimod plasma concentrations and a complete blood count (CBC) including lymphocyte count were assessed on day 1 and before dosing at subsequent study visits. Study visits occurred at baseline, week 1, week 2, week 4, week 6, week 8, week 12, at the end of treatment, and at the week 16 follow-up visit. The absolute lymphocyte count (ALC) was included as part of the assessment.

UC patients = conditions: 2 mg QD for 12 weeks; cited from earlier work
healthy adult subjects = conditions: single doses up to 5 mg, repeated doses up to 4 mg QD; cited from earlier work

Q: Which results are given for `O=C(O)C[C@H]1CCc2c1[nH]c1ccc(OCc3ccc(C4CCCC4)c(C(F)(F)F)c3)cc21` [etrasimod, (R)-2-(7-(4-cyclopentyl-3-(trifluoromethyl)benzyloxy)-1,2,3,4-tetrahydrocyclopenta[b]indol-3-yl)acetic acid]?
A: patients achieving EASI-75 ([1]; 1 mg once daily, week 12): 27.7%; patients achieving vIGA of 0 or 1 and a reduction from baseline of >=2 points at week 12 ([1]; 1 mg once daily, week 12): 14.9%; reduction in EASI from baseline to week 12 ([1]; 1 mg orally once daily): 58.7%; proportion of patients with decrease in pruritus >=4 points at week 12 ([1]; 1 mg, week 12, p=0.61 vs placebo): 32.5%; improvement in EASI from baseline to week 4 ([1]; 2 mg dose group, week 4): statistically significant improvement; improvement in pruritis at week 4 ([1]; 2 mg dose group, week 4): statistically significant improvement; proportion of patients who achieved EASI-75 at week 4 ([1]; 2 mg dose group, week 4): statistically significant improvement; delta versus placebo in vIGA 0 or 1 response at week 12 ([1]; 2 mg group vs placebo): 16.8%; percent change in EASI over time versus placebo ([1]; 2 mg group without interruptions, weeks 4 to 12): significant at 4 weeks; patients achieving EASI-75 at week 12 ([1]; 2 mg group without study interruptions): 42.1%; patients achieving vIGA of 0 or 1 and reduction from baseline >=2 points at week 12 ([1]; 2 mg group without study interruptions (38 participants)): 36.8%; delta versus placebo in vIGA 0 or 1 response at week 12 ([1]; 2 mg group without study interruptions vs placebo): 23.8%; patients achieving EASI-75 ([1]; 2 mg once daily, week 12): 38.3%; patients achieving vIGA of 0 or 1 and a reduction from baseline of >=2 points at week 12 ([1]; 2 mg once daily, week 12): 29.8%; reduction in EASI from baseline to week 12 ([1]; 2 mg orally once daily): 57.2%; treatment response after restart of treatment ([1]; 2 mg patients with dose interruption, after restart): recaptured; EASI change from baseline in patients who ceased then reinitiated treatment ([1]; 2 mg patients with dose interruption, to week 12): improved rapidly after resumption; patient-reported and clinician-assessed outcomes versus placebo ([1]; 2 mg, over 12 weeks): improved patient-reported outcomes and clinician-assessed outcomes versus placebo; proportions of patients achieving vIGA score of 0 or 1, DLQI and POEM versus placebo ([1]; 2 mg, week 12): significantly greater proportions; proportion of patients with decrease in pruritus >=4 points at week 12 ([1]; 2 mg, week 12, p=0.15 vs placebo): 42.1%; pruritis NRC changes over time versus placebo ([1]; etrasimod group without interruptions): statistically significant from weeks 2-8; tolerability ([2]; 1 mg and 2 mg, 12-week double-blind period): well tolerated; cases of dyspnea ([2]; 2 mg treatment group): one case; adverse events related to heart rate ([2]; double-blind treatment period): no adverse events related to heart rate; cases of macular edema ([2]; double-blind treatment period): no cases; conjunctivitis, acne, venous thromboembolic events, opportunistic or serious infections ([2]; double-blind treatment period): no reports; blood pressure changes or symptoms associated with heart rate changes (heart rate; 1 mg and 2 mg groups, after first dose): not associated with any blood pressure changes or symptoms; placebo corrected maximal mean heart rate decrease from baseline (heart rate; 1 mg group): 1.5 bpm; placebo corrected maximal mean heart rate decrease from baseline (heart rate; 2 mg group): 6.7 bpm; participants with transient 2nd degree AVB Type 1 (heart rate; 2 mg group, self-limited, asymptomatic): One; patients with ALC measurement of Grade 3 (between 0.2x10e9 and 0.5x10e9 cells/L) (lymphocyte count; 2 mg group, between weeks 4 and 8): nine; maximal reduction in the peripheral lymphocyte count (lymphocyte count; 2 mg group, week 2): 43.6%; lymphocyte count after treatment withdrawal (lymphocyte count; 2 mg patients with dose interruption, between weeks 4 and 8): rapid rebound in lymphocyte count; endoscopic and symptomatic improvements versus placebo (UC patients): clinically meaningful and statistically significant endoscopic and symptomatic improvements; safety and tolerability in clinical trials (healthy adult subjects): safe and well-tolerated
